Tested on: P12-Ichikawa
Experiment: cell viability relative to DMSO control; higher = less cytotoxic
Settings: 48 h
Method in brief: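 Viability is expressed as a percentage of DMSO wells within each plate, and cell-free wells serve as background. Seeding densities in the 1536-well plates (5 μl) were 500 cells/well for NOMO1 or SEM leukemia cells and 1000 cells/well for P12-Ichikawa. Each line was adapted for at least four passages in each medium. Library compounds in DMSO were pin-dosed at 47 μM to 0.79 nM (11 points, threefold), and CellTiter-Glo One luminescence was read after 48 h at 37°C.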

[1] = HPLM + 10% dialyzed FBS, 0.000781 µM
[2] = HPLM + 10% dialyzed FBS, 0.00234 µM
[3] = HPLM + 10% dialyzed FBS, 0.00702 µM
[4] = HPLM + 10% dialyzed FBS, 0.0211 µM
[5] = HPLM + 10% dialyzed FBS, 0.0632 µM
[6] = HPLM + 10% dialyzed FBS, 0.19 µM
[7] = HPLM + 10% dialyzed FBS, 0.569 µM
[8] = HPLM + 10% dialyzed FBS, 1.71 µM
[9] = HPLM + 10% dialyzed FBS, 5.12 µM
[10] = HPLM + 10% dialyzed FBS, 15.4 µM
[11] = HPLM + 10% dialyzed FBS, 46.1 µM
[12] = RPMI 5 mM glucose + 10% FBS, 0.000781 µM
[13] = RPMI 5 mM glucose + 10% FBS, 0.00234 µM
[14] = RPMI 5 mM glucose + 10% FBS, 0.00702 µM
[15] = RPMI 5 mM glucose + 10% FBS, 0.0211 µM
[16] = RPMI 5 mM glucose + 10% FBS, 0.0632 µM
[17] = RPMI 5 mM glucose + 10% FBS, 0.19 µM
[18] = RPMI 5 mM glucose + 10% FBS, 0.569 µM
[19] = RPMI 5 mM glucose + 10% FBS, 1.71 µM
[20] = RPMI 5 mM glucose + 10% FBS, 5.12 µM
[21] = RPMI 5 mM glucose + 10% FBS, 15.4 µM
[22] = RPMI 5 mM glucose + 10% FBS, 46.1 µM
[23] = RPMI 5 mM glucose + 10% dialyzed FBS, 0.000781 µM
[24] = RPMI 5 mM glucose + 10% dialyzed FBS, 0.00234 µM
[25] = RPMI 5 mM glucose + 10% dialyzed FBS, 0.00702 µM
[26] = RPMI 5 mM glucose + 10% dialyzed FBS, 0.0211 µM
[27] = RPMI 5 mM glucose + 10% dialyzed FBS, 0.0632 µM
[28] = RPMI 5 mM glucose + 10% dialyzed FBS, 0.19 µM
[29] = RPMI 5 mM glucose + 10% dialyzed FBS, 0.569 µM
[30] = RPMI 5 mM glucose + 10% dialyzed FBS, 1.71 µM
[31] = RPMI 5 mM glucose + 10% dialyzed FBS, 5.12 µM
[32] = RPMI 5 mM glucose + 10% dialyzed FBS, 15.4 µM
[33] = RPMI 5 mM glucose + 10% dialyzed FBS, 46.1 µM

SMILES | cell viability [1] [%] | cell viability [2] [%] | cell viability [3] [%] | cell viability [4] [%] | cell viability [5] [%] | cell viability [6] [%] | cell viability [7] [%] | cell viability [8] [%] | cell viability [9] [%] | cell viability [10] [%] | cell viability [11] [%] | cell viability [12] [%] | cell viability [13] [%] | cell viability [14] [%] | cell viability [15] [%] | cell viability [16] [%] | cell viability [17] [%] | cell viability [18] [%] | cell viability [19] [%] | cell viability [20] [%] | cell viability [21] [%] | cell viability [22] [%] | cell viability [23] [%] | cell viability [24] [%] | cell viability [25] [%] | cell viability [26] [%] | cell viability [27] [%] | cell viability [28] [%] | cell viability [29] [%] | cell viability [30] [%] | cell viability [31] [%] | cell viability [32] [%] | cell viability [33] [%]
C[C@]12CC[C@H]3[C@@H](CC(=C)\C4=C\C(=O)\C=C/[C@]34C)[C@@H]1CCC2=O | 105 | 107 | 105 | 107 | 107 | 101 | 104 | 103 | 98 | 99 | 79.9 | 96.3 | 110 | 105 | 102 | 108 | 96.2 | 102 | 107 | 101 | 98 | 63.7 | 96.7 | 107 | 99.6 | 101 | 99.1 | 95.2 | 88.5 | 103 | 102 | 94.5 | 57.4
CO[C@@H](C(=O)N1Cc2[nH]nc(NC(=O)c3ccc(N4CCN(C)CC4)cc3)c2C1)c1ccccc1 | 89.1 | 93.6 | 93 | 95.9 | 80 | 35.4 | 15 | 20.3 | 23.2 | 25 | 50.8 | 90 | 87.3 | 84.9 | 89 | 75.9 | 30.3 | 19.9 | 28.9 | 28.3 | 26.1 | 42.3 | 87.1 | 95.8 | 95.9 | 95.5 | 82.8 | 34.5 | 28.4 | 37.9 | 39.4 | 42.8 | 54.8
